From patent US20230416331A1, “PEPTIDE CONJUGATES OF PEPTIDIC TUBULIN INHIBITORS AS THERAPEUTICS” (priority 2021, published 2023)
Where a SMILES comes first, the peptide text is derived from it. [ ]: non-standard residue; d: D form. The star is where a group is joined. Dolaproine = CO[C@@H]([C@@H]1CCCN1)[C@@H](C)C(=O)O; Dil = CC[C@H](C)[C@H](NC)[C@@H](CC(=O)O)OC; X1 = C[C@@H](N*)[C@@H](O)c1ccccc1; NMeV = CN[C@H](C(=O)O)C(C)C

Columns and labels:
[1] = system: HCT116 colorectal cancer flank tumors; test: Efficacy of Compound 5 in a HCT116 colorectal xenograft model (Example N); assay type: in vivo, nude mice; settings: 1, 5 and 10 mg/kg IP QDx4
Description: Mice were administered intraperitoneal (IP) doses of vehicle, 1, 5, or 10 mg/kg Compound 5.

HCT116 cells = test: In vitro cell cycle arrest functional assay (propidium iodide, flow cytometry); assay type: cell-based; settings: Homo sapiens, HCT-116, 24 h incubation, read-out: IC50 of dose responsive accumulation in G2/M
Description: Cell Incubation with MMAE and Compound 2 and Staining with Propidium Iodide
HCT116 cells were seeded in 6-well tissue culture plates at 500,000 cells per well in 2 mL of DMEM and incubated overnight in a 37° C., 5% CO2 incubator. 200 μL of dilutions of MMAE and Compound 2 which were made at 10× concentrations in DMEM+4% DMSO were added to appropriate wells of the 6-well plates and plates were incubated for 24 hours. After exposure of HCT116 cells to either MMAE or Compound 2, cells were harvested for propidium iodide staining and flow cytometry. Media was collected from each well and transferred into conical 15 mL centrifuge tubes to collect nonadherent cells. PBS (1 mL) was added to wash wells and was then transferred to the 15 mL tubes. Tryp-LE (1 mL) was added to each well and plates were incubated for 5 minutes in a 37° C., 5% CO2 incubator until the cells lifted off the well surface. A solution of DMEM+10% fetal bovine serum (1 mL) was added to each well. Wells were triturated and cells transferred to tubes. […] Cell counts and viability for each sample was assessed by trypan blue exclusion on a Bio-Rad TC20 cell counter. […]
An aliquot (1 mL) of each cell suspension was transferred into a deep-well polypropylene plate. […] Propidium iodide-stained cells were analyzed using a BD Acuri flow cytometer.

[2] = Tissue pharmacokinetics of Compound 2 in a mouse model (MMAE in tumor, muscle, bone marrow); assay type: in vivo, athymic nude mice bearing HCT116 tumors; settings: single IP 0.5 mg/kg MMAE or 3 mg/kg Compound 2; 4, 24, 48 h; LCMS
Description: When xenografts reached a minimal volume of 300 mm^3, mice were administered a single intraperitoneal injection of 0.5 mg/kg MMAE or 3 mg/kg Compound 2 prepared in a vehicle of 5% mannitol in citrate. Tumor, quadriceps muscle and bone marrow samples were collected from fed, anesthetized mice at 4, 24 and 48 hours after compound administration. MMAE concentrations in tissues were determined via LCMS.
A 75 μL volume of acetonitrile:formic acid (1000:1, v:v) containing internal standard (MMAE-D8) to the wells of a 96-well protein precipitation plate resting on top of a 0.700 mL 96-well LoBind polypropylene plate. Double blank and carryover sample wells received 75 μL of acetonitrile:formic acid (1000:1, v:v) without internal standard. A 25 μL volume of each matrix sample was added to the plate wells containing internal standard. Fortified samples were vortexed at 700 rpm for 1 minute and centrifuged at 3000 rpm for 2 minutes at 4° C. The protein precipitation plate was discarded. A 50 μL volume of mobile phase A (acetonitrile:water:200 mM ammonium formate (90:5:5, v:v:v)) was added to the 96-well polypropylene collection plate which was covered with a silicone cap mat. Final samples were vortexed at 700 rpm for 2 minutes and analysis was accomplished by injecting a 2 μL sample onto an LC-MS/MS system. […]

[3] = system: HCT116 HER2 negative colorectal flank tumors; test: Efficacy in a HCT116 colorectal xenograft model (Example E); assay type: in vivo, nude mice; settings: IP QDx2
Description: Mice were administered intraperitoneal (IP) doses of vehicle, 0.25 mg/kg MMAE or 40 mg/kg Compound 1 (equivalent 7 mg/kg unconjugated MMAE).

| Compound | efficacy (mean tumor volume) [1] | IC50 (HCT116 cells) | distribution of unconjugated MMAE to tumor, muscle and bone marrow [2] | animals removed from the study by day ([3]; 0.25 mg/kg MMAE) | change in body weight ([3]; 0.25 mg/kg MMAE or 40 mg/kg Compound 1 (7 mg/kg MMAE equivalent)) |
| --- | --- | --- | --- | --- | --- |
| CC[C@H](C)[C@@H]([C@@H](CC(=O)N1CCC[C@H]1[C@H](OC)[C@@H](C)C(=O)N[C@H](C)[C@@H](O)c1ccccc1)OC)N(C)C(=O)[C@@H](NC(=O)[C@H](C(C)C)N(C)C(=O)OCc1ccc(NC(=O)O[C@H]2CCCC[C@@H]2SSC[C@H](NC(=O)[C@H](Cc2c[nH]c3ccccc23)NC(=O)[C@H](CC(C)C)NC(=O)[C@H](CC(C)C)NC(=O)[C@H](CC(=O)O)NC(=O)[C@H](CC(C)C)NC(=O)[C@H](CC(C)C)NC(=O)[C@H](CC(C)C)NC(=O)[C@@H](NC(=O)[C@H](CC(=O)O)NC(=O)[C@@H](NC(=O)[C@@H]2CCCN2C(=O)[C@H](Cc2ccccc2)NC(=O)[C@H](CC(C)C)NC(=O)[C@H](CC(C)C)NC(=O)[C@H](CC(=O)O)NC(=O)[C@H](CC(C)C)NC(=O)[C@H](Cc2ccc(O)cc2)NC(=O)[C@H](C)NC(=O)[C@H](CCCNC(=N)N)NC(=O)[C@H](Cc2c[nH]c3ccccc23)NC(=O)[C@@H]2CCCN2C(=O)[C@H](CC(N)=O)NC(=O)[C@H](CCC(N)=O)NC(=O)[C@H](CC(=O)O)NC(=O)[C@H](CC(=O)O)NC(=O)[C@H](C)N)[C@@H](C)O)[C@@H](C)O)C(=O)NCC(N)=O)cc1)C(C)C [Compound 5] | dose responsive efficacy |  |  |  |  |
| CC[C@H](C)[C@@H]([C@@H](CC(=O)N1CCC[C@H]1[C@H](OC)[C@@H](C)C(=O)N[C@H](C)[C@@H](O)c1ccccc1)OC)N(C)C(=O)[C@@H](NC(=O)[C@@H](NC)C(C)C)C(C)C [MMAE, monomethyl auristatin E] (H-[NMeV]V[Dil][Dolaproine]-X1) |  | 2.6 nM | indiscriminate distribution of MMAE across all tissues | ≤ 6 days | rapid decline in body weight |
